8 compounds from patent publication US20240246935A1 (Plexium, Inc., priority 2021, published 2024) can be followed below.

Where only a bound is given, the exact number is not on record here.

Test [1] concerns the target human E3 ligase component cereblon (CRBN) (Homo sapiens (Human), UniProt Q96SW2). The test is described as follows: Cereblon (CRBN) target engagement, NanoBRET TE Intracellular E3 Ligase Assay in transfected HEK-293T cells. To be noted: read-out: CRBN Binding EC50. The procedure, abridged: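 Live HEK-293T cells co-transfected overnight with NanoLuc-CRBN (CRBN at NanoLuc C-terminus) and DDB1 vectors (10:990 ng) were given CRBN tracer and an 11-point compound series for 2 h at 37° C. BRET read at 450/610 nm with extracellular NanoLuc inhibitor present; IC50 from four-parameter logistic fit.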
Background: BRET reads energy transfer from a luciferase to a nearby fluorophore.

For test [2], the system named is IKZF2 (Helios). The test is described as follows: IKZF2 reporter degradation assay (HEK 293T IKZF2-mNeonGreen reporter cell line). In kind it is cell-based, human. To be noted: 1 μM compound, 24 hour incubation, HEK 293T IKZF2-mNeonGreen reporter. An outline of the steps:
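HEK 293T lines stably expressing each IKZF-GGGGS×3-mNeonGreen-P2A-mScarlet reporter, 4000 cells/well in FluoroBrite medium, treated with compound (≤0.5% DMSO) for 24 h at 37 °C. Imaging measured percent mNeonGreen-positive cells, with mScarlet used for segmentation; DC50 from four-parameter logistic fit.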

Sequence of human E3 ligase component cereblon (CRBN) (Q96SW2 whole entry): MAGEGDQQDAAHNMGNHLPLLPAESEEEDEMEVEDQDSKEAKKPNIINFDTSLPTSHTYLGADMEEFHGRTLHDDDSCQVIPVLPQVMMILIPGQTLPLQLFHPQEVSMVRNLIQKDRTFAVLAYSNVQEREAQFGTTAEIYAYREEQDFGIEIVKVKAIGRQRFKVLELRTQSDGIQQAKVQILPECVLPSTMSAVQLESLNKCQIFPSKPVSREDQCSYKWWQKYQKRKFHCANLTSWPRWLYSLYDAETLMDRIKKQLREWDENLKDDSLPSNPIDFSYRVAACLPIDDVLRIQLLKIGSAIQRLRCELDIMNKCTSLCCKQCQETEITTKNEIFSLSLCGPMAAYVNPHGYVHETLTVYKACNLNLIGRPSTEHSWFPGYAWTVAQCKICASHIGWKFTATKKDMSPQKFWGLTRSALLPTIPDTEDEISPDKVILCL
Sequence of human E3 ligase component cereblon (CRBN) (Q16531 whole entry partner): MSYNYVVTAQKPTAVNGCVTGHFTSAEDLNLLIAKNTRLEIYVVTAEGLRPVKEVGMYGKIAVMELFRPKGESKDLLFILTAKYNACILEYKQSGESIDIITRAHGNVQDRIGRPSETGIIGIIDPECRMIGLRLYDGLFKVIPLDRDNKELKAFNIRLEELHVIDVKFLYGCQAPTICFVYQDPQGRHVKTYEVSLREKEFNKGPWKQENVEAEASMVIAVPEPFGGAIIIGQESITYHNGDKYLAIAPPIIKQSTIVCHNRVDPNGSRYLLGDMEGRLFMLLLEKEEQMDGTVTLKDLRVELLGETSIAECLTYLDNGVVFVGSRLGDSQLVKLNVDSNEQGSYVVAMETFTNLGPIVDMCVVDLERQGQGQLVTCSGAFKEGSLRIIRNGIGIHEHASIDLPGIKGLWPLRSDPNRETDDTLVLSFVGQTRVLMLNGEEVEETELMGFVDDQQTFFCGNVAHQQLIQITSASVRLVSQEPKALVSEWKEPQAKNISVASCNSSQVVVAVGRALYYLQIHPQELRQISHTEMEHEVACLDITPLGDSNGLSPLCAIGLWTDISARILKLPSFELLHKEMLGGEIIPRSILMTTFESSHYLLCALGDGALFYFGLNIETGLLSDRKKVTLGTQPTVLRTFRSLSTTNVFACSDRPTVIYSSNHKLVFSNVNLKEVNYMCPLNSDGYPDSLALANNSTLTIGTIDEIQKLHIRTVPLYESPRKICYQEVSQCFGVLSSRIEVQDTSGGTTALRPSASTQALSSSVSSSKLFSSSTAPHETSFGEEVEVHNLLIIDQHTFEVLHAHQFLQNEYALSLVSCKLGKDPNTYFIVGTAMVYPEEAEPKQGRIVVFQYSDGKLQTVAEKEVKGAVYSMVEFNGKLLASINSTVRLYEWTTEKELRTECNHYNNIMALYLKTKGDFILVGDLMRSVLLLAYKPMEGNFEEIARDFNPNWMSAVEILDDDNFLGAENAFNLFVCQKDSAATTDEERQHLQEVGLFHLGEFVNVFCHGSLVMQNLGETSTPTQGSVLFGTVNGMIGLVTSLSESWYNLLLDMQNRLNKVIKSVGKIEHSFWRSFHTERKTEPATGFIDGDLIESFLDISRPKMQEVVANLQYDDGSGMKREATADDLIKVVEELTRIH

The EC50 is the concentration giving half of the maximal effect. As to `N#Cc1ccc(C2CN(C3CCCCC3Oc3ccc4c(c3)CN(C3CCC(=O)NC3=O)C4=O)C2)cc1` (stereo not shown) [Compound 117, 4-(1-(2-((2-(2,6-dioxopiperidin-3-yl)-1-oxoisoindolin-5-yl)oxy)cyclohexyl)azetidin-3-yl)benzonitrile], the concentration for a half-maximal effect (EC50) in test [1] was 31 nM. In test [2], the “IKZF2 % Degradation @ 1 μM” value was less than 15%.

Consider `O=C1CCC(N2Cc3cc(OC4CCCCC4N4CC(c5ccccc5)C4)ccc3C2=O)C(=O)N1` (stereo not shown) [Compound 118, 3-(1-oxo-5-((2-(3-phenylazetidin-1-yl)cyclohexyl)oxy)isoindolin-2-yl)piperidine-2,6-dione], for which, in test [1], the 50% effective concentration (EC50) came to 36 nM. Moreover, the “IKZF2 % Degradation @ 1 μM” value in test [2] is less than 15%.

Take `O=C1CCC(N2Cc3cc(O[C@H]4CCC[C@@H]4N4CC(c5ccccc5)C4)ccc3C2=O)C(=O)N1` (stereo partly drawn) [Compound 120, 3-(1-oxo-5-(((1S,2S)-2-(3-phenylazetidin-1-yl)cyclopentyl)oxy)isoindolin-2-yl)piperidine-2,6-dione]: the EC50 in test [1] worked out at 11 nM. In addition, in test [2], the “IKZF2 % Degradation @ 1 μM” value came out at 78.8%.

Consider `O=C1CCC(N2Cc3cc(O[C@H]4CCC[C@@H]4N4CCC(c5ccccc5)C4)ccc3C2=O)C(=O)N1` (stereo partly drawn) [Compound 121, 3-(1-oxo-5-(((1S,2S)-2-(3-phenylpyrrolidin-1-yl)cyclopentyl)oxy)isoindolin-2-yl)piperidine-2,6-dione], for which the 50% effective concentration (EC50) in test [1] amounted to 6 nM. Besides, the “IKZF2 % Degradation @ 1 μM” value in test [2] is reported as 75.9%.

For the compound `O=C1CCC(N2Cc3cc(O[C@H]4CCCC[C@@H]4N4CC(c5ccc(F)cc5)C4)ccc3C2=O)C(=O)N1` (stereo partly drawn) [Compound 123, 3-(5-(((1S,2S)-2-(3-(4-fluorophenyl)azetidin-1-yl)cyclohexyl)oxy)-1-oxoisoindolin-2-yl)piperidine-2,6-dione], in test [1], the EC50 came out at 11 nM. Moreover, in test [2], the “IKZF2 % Degradation @ 1 μM” value was determined as 74.4%.

Take `COc1cccc(C2CN([C@H]3CCCC[C@@H]3Oc3ccc4c(c3)CN(C3CCC(=O)NC3=O)C4=O)C2)c1` (stereo partly drawn) [Compound 126, 3-(5-(((1S,2S)-2-(3-(3-methoxyphenyl)azetidin-1-yl)cyclohexyl)oxy)-1-oxoisoindolin-2-yl)piperidine-2,6-dione]: the EC50 in test [1] was found to be 5 nM. In addition, the “IKZF2 % Degradation @ 1 μM” value in test [2] turned out to be 84.3%.

`O=C1CCC(N2Cc3cc(O[C@H]4CCCC[C@H]4N4CC(c5ccccc5)C4)ccc3C2=O)C(=O)N1` (stereo partly drawn) [Compound 128, 3-(1-oxo-5-(((1S,2R)-2-(3-phenylazetidin-1-yl)cyclohexyl)oxy)isoindolin-2-yl)piperidine-2,6-dione]: the concentration for a half-maximal effect (EC50) in test [1] came out at 18 nM. Also, the “IKZF2 % Degradation @ 1 μM” value in test [2] is less than 15%.

In the case of “Rac-3-(5-(((trans)-2-(3-hydroxy-3-phenylazetidin-1-yl)cyclohexyl)oxy)-1-oxoisoindolin-2-yl)piperidine-2,6-dione [Compound 96]”, the half-maximal effective concentration (EC50) in test [1] worked out at 42 nM. In addition, the “IKZF2 % Degradation @ 1 μM” value in test [2] came out at 78.9%.
